Data from PMC11274654 (Biomedicines, 2024).

Tested on: Rat Calvarial Osteoblasts (RCOs)
Experiment: ALP assay (osteoblast differentiation) in rat calvarial osteoblasts
Assay type: cell-based
Conditions: for Activity in ALP Assay (Positive/Negative) / Effect on ALP activity compared to the control (vehicle): 48 h; for EC50: Rattus norvegicus, Calvarial osteoblast, 48 h in osteoblast differentiation media
Method: Sequential digestion was performed to isolate calvarial osteoblast cells from neonatal rat pups. Briefly, calvariae were harvested from ten to twelve 1–2-day old rat pups, cleaned, and subjected to five sequential enzymatic digestions (0.1% dispase and 0.1% collagenase I) of 10–15 min each, followed by culturing of the harvested cells in α-MEM supplemented with 10% FBS [22].
RCOs were seeded in 24-well plates (1 × 10^4 cells/well), and the cells were treated for 48 h in osteoblast differentiation media (α-MEM supplemented with 10 mM β-glycerophosphate and 50 μg/mL ascorbic acid) with the imidazole group of chemicals (10^−11 M–10^−6 M).
A total of 2 mg/mL of para-Nitrophenyl phosphate in diethanolamine buffer was used to measure the ALP activity at a 405 nm wavelength.

SMILES	EC50	Activity in ALP Assay (Positive/Negative)	Effect on ALP activity compared to the control (vehicle)
O=C(Cn1ccnc1[N+](=O)[O-])NCCO [Etanidazole]	0.4 µM	Positive	significantly increased
CCS(=O)(=O)CCn1c([N+](=O)[O-])cnc1C [Tinidazole]	> 10 µM	Negative	no effect

Now from value to compound, other results behind:

EC50	SMILES	Activity in ALP Assay (Positive/Negative)	Effect on ALP activity compared to the control (vehicle)
> 10 µM	Cc1ncc([N+](=O)[O-])n1CC(O)CCl (stereo not drawn) [Ornidazole]	Negative	no effect
> 10 µM	Cn1c([N+](=O)[O-])cnc1COC(N)=O [Ronidazole]	Negative	no effect
> 10 µM	Cc1ncc([N+](=O)[O-])n1CC(C)O (stereo not drawn) [Secnidazole]	Negative	no effect
